Data: PubChem BioAssay AID1963875 (Molecular Pharmacology Branch, DTP, NCI, 2024)
pIC50: −log10 of the molar value.

System: KRAS-mutant PDC complex spheroid viability
Assay: Anticancer human tumor 186277-243-T-J2-PDC patient-derived colon adenocarcinoma cell line growth inhibition [KRAS2]
Details: for pIC50: curve of first compound; for viability, T/C: stronger effect = lower value
Summary of the method: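 Combination screen of spheroid viability in tumor-cell co-cultures with endothelial (HUVEC) and mesenchymal stem cell stroma. Each agent was tested in half-log dilutions, topping at clinical Cmax or at 10 microM without a known Cmax.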

[1] = second compound 0.1 µM, first compound 0.0316 µM
[2] = second compound 0.1 µM, first compound 0.1 µM
[3] = second compound 0.316 µM, first compound 0.0316 µM
[4] = second compound 0.316 µM, first compound 0.1 µM
[5] = second compound 1 µM, first compound 0.0316 µM
[6] = second compound 1 µM, first compound 0.1 µM
[7] = second compound 3.16 µM, first compound 0.0316 µM
[8] = second compound 3.16 µM, first compound 0.1 µM
[9] = second compound 10 µM, first compound 0.0316 µM
[10] = second compound 10 µM, first compound 0.1 µM
[11] = second compound 0.1 µM, first compound 0.316 µM
[12] = second compound 0.1 µM, first compound 1 µM
[13] = second compound 0.1 µM, first compound 3.16 µM
[14] = second compound 0.1 µM, first compound 10 µM
[15] = second compound 0.316 µM, first compound 0.316 µM
[16] = second compound 0.316 µM, first compound 1 µM
[17] = second compound 0.316 µM, first compound 3.16 µM
[18] = second compound 0.316 µM, first compound 10 µM
[19] = second compound 1 µM, first compound 0.316 µM
[20] = second compound 1 µM, first compound 1 µM
[21] = second compound 1 µM, first compound 3.16 µM
[22] = second compound 1 µM, first compound 10 µM
[23] = second compound 3.16 µM, first compound 0.316 µM
[24] = second compound 3.16 µM, first compound 1 µM
[25] = second compound 3.16 µM, first compound 3.16 µM
[26] = second compound 3.16 µM, first compound 10 µM
[27] = second compound 10 µM, first compound 0.316 µM
[28] = second compound 10 µM, first compound 1 µM
[29] = second compound 10 µM, first compound 3.16 µM
[30] = second compound 10 µM, first compound 10 µM
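Wherever viability, T/C is given: viability read after seven days of compound exposure; 100% = DMSO vehicle-treated spheroids so lower means less viable.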

Row | Compound | pIC50 (second compound 0.1 µM) | pIC50 (second compound 0.316 µM) | pIC50 (second compound 1 µM) | pIC50 (second compound 3.16 µM) | pIC50 (second compound 10 µM) | viability, T/C [1] | viability, T/C [2] | viability, T/C [3] | viability, T/C [4] | viability, T/C [5] | viability, T/C [6] | viability, T/C [7] | viability, T/C [8] | viability, T/C [9] | viability, T/C [10] | viability, T/C [11] | viability, T/C [12] | viability, T/C [13] | viability, T/C [14] | viability, T/C [15] | also measured
1 | CC(C)n1nc(-c2ccc3oc(N)nc3c2)c2c(N)ncnc21 + CNCc1ccccc1-c1csc(C(C)Nc2nc(C)nc3cc(OC)c(OC)cc23)c1 | 8.25 | 8.40 | 8.30 | 8.93 | > 9.50 | 28.6% | 16.6% | 23.4% | 19.7% | 22.9% | 14.9% | 8.24% | 1.61% | 0.1% | 0.16% | – | – | – | – | – | viability, T/C (second compound 0.1 µM, first compound 0.000316 µM): 108%; viability, T/C (second compound 0.1 µM, first compound 0.001 µM): 92.5%; viability, T/C (second compound 0.1 µM, first compound 0.00316 µM): 57%; viability, T/C (second compound 0.1 µM, first compound 0.01 µM): 40.3%; viability, T/C (second compound 0.316 µM, first compound 0.000316 µM): 98.8%; viability, T/C (second compound 0.316 µM, first compound 0.001 µM): 80.8%; viability, T/C (second compound 0.316 µM, first compound 0.00316 µM): 54.7%; viability, T/C (second compound 0.316 µM, first compound 0.01 µM): 32.9%; viability, T/C (second compound 1 µM, first compound 0.000316 µM): 96.3%; viability, T/C (second compound 1 µM, first compound 0.001 µM): 88.8%; viability, T/C (second compound 1 µM, first compound 0.00316 µM): 55.8%; viability, T/C (second compound 1 µM, first compound 0.01 µM): 37.7%; viability, T/C (second compound 3.16 µM, first compound 0.000316 µM): 63.9%; viability, T/C (second compound 3.16 µM, first compound 0.001 µM): 55.9%; viability, T/C (second compound 3.16 µM, first compound 0.00316 µM): 14%; viability, T/C (second compound 3.16 µM, first compound 0.01 µM): 16.8%; viability, T/C (second compound 10 µM, first compound 0.000316 µM): 0.14%; viability, T/C (second compound 10 µM, first compound 0.001 µM): 0.13%; viability, T/C (second compound 10 µM, first compound 0.00316 µM): 0.11%; viability, T/C (second compound 10 µM, first compound 0.01 µM): 0.1%
2 | CC1(C)CCC(CN2CCN(c3ccc(C(=O)NS(=O)(=O)c4ccc(NCC5CCOCC5)c([N+](=O)[O-])c4)c(Oc4cnc5[nH]ccc5c4)c3)CC2)=C(c2ccc(Cl)cc2)C1 + CNCc1ccccc1-c1csc(C(C)Nc2nc(C)nc3cc(OC)c(OC)cc23)c1 | 5.67 | 5.65 | 5.67 | 7.04 | > 7.50 | 120% | 102% | 115% | 117% | 126% | 125% | 80.2% | 44.8% | 0.17% | 0.16% | 107% | 110% | 19.2% | 1.52% | 117% | viability, T/C [16]: 119%; viability, T/C [17]: 22.1%; viability, T/C [18]: 1.59%; viability, T/C [19]: 112%; viability, T/C [20]: 116%; viability, T/C [21]: 17.2%; viability, T/C [22]: 0.88%; viability, T/C [23]: 29.2%; viability, T/C [24]: 7.62%; viability, T/C [25]: 0.22%; viability, T/C [26]: 0.13%; viability, T/C [27]: 0.14%; viability, T/C [28]: 0.12%; viability, T/C [29]: 0.12%; viability, T/C [30]: 0.2%
3 | COc1cc(Nc2ncc3c(n2)-c2ccc(Cl)cc2C(c2c(F)cccc2OC)=NC3)ccc1C(=O)O + CNCc1ccccc1-c1csc(C(C)Nc2nc(C)nc3cc(OC)c(OC)cc23)c1 | > 7.50 | > 7.50 | > 7.50 | > 7.50 | > 7.50 | 35.7% | 32.4% | 32.8% | 27.8% | 30.1% | 31.6% | 4.28% | 5.85% | 0.12% | 0.11% | 29.4% | 34.1% | 44.2% | 43.8% | 28.8% | viability, T/C [16]: 29.7%; viability, T/C [17]: 38.3%; viability, T/C [18]: 40.8%; viability, T/C [19]: 25.9%; viability, T/C [20]: 30.7%; viability, T/C [21]: 35%; viability, T/C [22]: 35.9%; viability, T/C [23]: 4.27%; viability, T/C [24]: 3.03%; viability, T/C [25]: 0.28%; viability, T/C [26]: 0.7%; viability, T/C [27]: 0.12%; viability, T/C [28]: 0.15%; viability, T/C [29]: 0.11%; viability, T/C [30]: 0.19%
4 | COc1cc2nccc(Oc3ccc(NC(=O)C4(C(=O)Nc5ccc(F)cc5)CC4)cc3)c2cc1OC + CNCc1ccccc1-c1csc(C(C)Nc2nc(C)nc3cc(OC)c(OC)cc23)c1 | 5.73 | 5.72 | 5.77 | > 7.50 | > 7.50 | 112% | 106% | 113% | 104% | 102% | 112% | 45.5% | 48% | 0.16% | 0.15% | 115% | 93.3% | 11.4% | 12.4% | 113% | viability, T/C [16]: 100%; viability, T/C [17]: 10.8%; viability, T/C [18]: 4.47%; viability, T/C [19]: 121%; viability, T/C [20]: 85.7%; viability, T/C [21]: 6.86%; viability, T/C [22]: 2.01%; viability, T/C [23]: 26.6%; viability, T/C [24]: 0.18%; viability, T/C [25]: 0.06%; viability, T/C [26]: 0.12%; viability, T/C [27]: 0.13%; viability, T/C [28]: 0.13%; viability, T/C [29]: 0.13%; viability, T/C [30]: 0.21%
